The values below are quoted from earlier work in patent US20050084931A1, “Human prostaglandin DP receptor variants and methods of using same” (priority 2003, published 2005).

In this data set the target is T1, human DP receptor (Homo sapiens, UniProt Q13258).
T1 sequence (Q13258 1-359): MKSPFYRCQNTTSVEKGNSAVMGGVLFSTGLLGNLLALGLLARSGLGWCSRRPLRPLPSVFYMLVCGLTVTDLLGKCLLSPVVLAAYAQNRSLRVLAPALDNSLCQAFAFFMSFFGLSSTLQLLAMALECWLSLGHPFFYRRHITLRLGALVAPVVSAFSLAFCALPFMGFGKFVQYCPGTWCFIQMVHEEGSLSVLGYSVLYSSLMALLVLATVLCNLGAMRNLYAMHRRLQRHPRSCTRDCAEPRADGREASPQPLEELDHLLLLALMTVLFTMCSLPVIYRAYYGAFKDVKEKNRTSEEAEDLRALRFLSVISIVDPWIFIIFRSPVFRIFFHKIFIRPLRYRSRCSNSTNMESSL

Read-outs that look alike come from different tables or passages of the source.

For `CCCCC[C@H](O)/C=C/[C@H]1C(=O)C[C@H](O)[C@@H]1C/C=C\CCCC(=O)O` [PGD2, Prostaglandin D2], the Kd was 0.3 nM (high-affinity site, read-out: high-affinity binding site) and approximately 13 nM (read-out: lower-affinity site).
